Data published in patent publication US20240033234A1, “THERAPEUTIC COMPOUNDS, FORMULATIONS, AND USE THEREOF” (Tvardi Therapeutics, Inc., priority 2022, published 2024).
Several values for one entry are separate records, joined by “and”; a condition that tells them apart may be missing. Equal entries are not always repeated.

Assay: 3-Month stability data for TTI-101 Batches B, C, D and E stored at 40° C./75% RH
Assay type: physicochemical
Experimental: Exemplary HPLC conditions: diluent was 0.1% trifluoroacetic acid (TFA) in acetonitrile, Mobile Phase A was 0.05% TFA in water, and Mobile Phase B was 0.05% TFA in acetonitrile, column (Agilent, Eclipse XDB-C18, 3.0×100 mm, particle size 1.8 μm), flow (0.425 mL/min), and detector (280 nm diode array).
Batches B, C, and D were prepared according to Method 5, Method 4, and Method 3, respectively, as described in Example 1. Batch E was prepared analogously using according to Method 1 as described in Example 1.
Samples of TTI-101 (Batches B, C, D, and E) were stored at 40° C./75% RH for 3 months. The batches were individually stored in an low density polyethylene (LDPE) bag enclosed with a Nylon cable tie and then transferred to another LDPE bag and enclosed with a Nylon cable tie. The enclosure was put into a high density polyethylene (HDPE) bottle and closed with a polyethylene-lined polypropylene cap. For Batch B only, another sample was enclosed in a screw-top amber glass bottle and closed with a cap. The samples were stored under the above-identified conditions.

In the case of COc1ccc(S(=O)(=O)Nc2cc(-c3c(O)ccc4ccccc34)c(O)c3ccccc23)cc1 [Batch B (LDPE storage)], the “Impurities Total, Area %” value (0 M) is reported as 0.2 Area %, the “Impurity RRT 0.39, Area %” value (0 M) is reported as 0.06 Area % and the “Impurity RRT 0.49, Area %” value (0 M) is reported as “NQ (≥0.02% and <0.05%)”. The “Impurity RRT 0.54, Area %” value (0 M) was “NQ (≥0.02% and <0.05%)”, the “Impurity RRT 0.99, Area %” value (0 M) was “NQ (≥0.02% and <0.05%)” and the “Impurity RRT 1.16 (Cmp 6), Area %” value (0 M) was 0.12 Area %. For the same molecule, the “Impurities Total, Area %” value (1 M) was 0.1 Area % and 0.3 Area %, the “Impurity RRT 0.80, Area %” value (1 M) was “NQ (≥0.02% and <0.05%)” and the “Impurity RRT 0.84, Area %” value (1 M) was “NQ (≥0.02% and <0.05%)”. The “Impurity RRT 0.87, Area %” value (1 M) was “NQ (≥0.02% and <0.05%)”, the “Impurity RRT 0.99, Area %” value (1 M) was “NQ (≥0.02% and <0.05%)” and the “Impurity RRT 1.02, Area %” value (1 M) was 0.05 Area %. The “Impurity RRT 1.05, Area %” value (1 M) was “NQ (≥0.02% and <0.05%)”, the “Impurity RRT 1.06 (Cmp 4), Area %” value (1 M) was “NQ (≥0.02% and <0.05%)” and the “Impurity RRT 1.17 (Cmp 6), Area %” value (1 M) was 0.24 Area %. The “Impurity RRT 1.39, Area %” value (1 M) was “NQ (≥0.02% and <0.05%)”, the “Impurities Total, Area %” value (2 M) was 0.6 Area % and the “Impurity RRT 0.39, Area %” value (2 M) was “NQ (≥0.02% and <0.05%)”. The “Impurity RRT 0.51, Area %” value (2 M) was 0.06 Area %, the “Impurity RRT 0.80, Area %” value (2 M) was “NQ (≥0.02% and <0.05%)” and the “Impurity RRT 0.84, Area %” value (2 M) was “NQ (≥0.02% and <0.05%)”. The “Impurity RRT 0.87, Area %” value (2 M) was “NQ (≥0.02% and <0.05%)”, the “Impurity RRT 0.99, Area %” value (2 M) was “NQ (≥0.02% and <0.05%)” and the “Impurity RRT 1.02, Area %” value (2 M) was 0.11 Area %. For the same molecule, the “Impurity RRT 1.05, Area %” value (2 M) was “NQ (≥0.02% and <0.05%)”, the “Impurity RRT 1.06 (Cmp 4), Area %” value (2 M) was “NQ (≥0.02% and <0.05%)” and the “Impurity RRT 1.17 (Cmp 6), Area %” value (2 M) was 0.32 Area %. The “Impurity RRT 1.39, Area %” value (2 M) was 0.10 Area % and 0.1 Area %, the “Impurities Total, Area %” value (3 M) was 3.2 Area % and the “Impurity RRT 0.40, Area %” value (3 M) was “NQ (≥0.02% and <0.05%)”. The “Impurity RRT 0.85, Area %” value (3 M) was “NQ (≥0.02% and <0.05%)”, the “Impurity RRT 0.88, Area %” value (3 M) was “NQ (≥0.02% and <0.05%)” and the “Impurity RRT 0.98, Area %” value (3 M) was “NQ (≥0.02% and <0.05%)”. For the same molecule, the “Impurity RRT 1.02, Area %” value (3 M) was 0.13 Area %, the “Impurity RRT 1.05, Area %” value (3 M) was “NQ (≥0.02% and <0.05%)” and the “Impurity RRT 1.06 (Cmp 4), Area %” value (3 M) was “NQ (≥0.02% and <0.05%)”. The “Impurity RRT 1.13, Area %” value (3 M) was “NQ (≥0.02% and <0.05%)”, the “Impurity RRT 1.16 (Cmp 6), Area %” value (3 M) was 2.9 Area % and the “Impurity RRT 1.38 (1.39), Area %” value (3 M) was 0.16 Area %. For the same molecule, the Purity (%) (T = 0 month (0 M)) was 99.8% and 99.6%, the Purity (%) (T = 1 month (1 M)) was 99.5% and the Purity (%) (T = 2 months (2 M)) was 99.2%. The Purity (%) (T = 3 months (3 M)) was 96.6%.
For COc1ccc(S(=O)(=O)Nc2cc(-c3c(O)ccc4ccccc34)c(O)c3ccccc23)cc1 [Batch B (glass storage)], the “Impurities Total, Area %” value (0 M) was 0.2 Area %, the “Impurity RRT 0.39, Area %” value (0 M) was 0.06 Area % and the “Impurity RRT 0.49, Area %” value (0 M) was “NQ (≥0.02% and <0.05%)”. For the same molecule, the “Impurity RRT 0.54, Area %” value (0 M) was “NQ (≥0.02% and <0.05%)”, the “Impurity RRT 0.99, Area %” value (0 M) was “NQ (≥0.02% and <0.05%)” and the “Impurity RRT 1.16 (Cmp 6), Area %” value (0 M) was 0.12 Area %. For the same molecule, the “Impurities Total, Area %” value (1 M) was 0.3 Area %, the “Impurity RRT 0.80, Area %” value (1 M) was “NQ (≥0.02% and <0.05%)” and the “Impurity RRT 0.84, Area %” value (1 M) was “NQ (≥0.02% and <0.05%)”. For the same molecule, the “Impurity RRT 0.87, Area %” value (1 M) was “NQ (≥0.02% and <0.05%)”, the “Impurity RRT 0.99, Area %” value (1 M) was 0.05 Area % and the “Impurity RRT 1.02, Area %” value (1 M) was 0.06 Area %. The “Impurity RRT 1.06 (Cmp 4), Area %” value (1 M) was “NQ (≥0.02% and <0.05%)”, the “Impurity RRT 1.17 (Cmp 6), Area %” value (1 M) was 0.23 Area % and the “Impurity RRT 1.39, Area %” value (1 M) was “NQ (≥0.02% and <0.05%)”. For the same molecule, the “Impurities Total, Area %” value (2 M) was 0.4 Area %, the “Impurity RRT 0.39, Area %” value (2 M) was “NQ (≥0.02% and <0.05%)” and the “Impurity RRT 0.80, Area %” value (2 M) was “NQ (≥0.02% and <0.05%)”. The “Impurity RRT 0.84, Area %” value (2 M) was “NQ (≥0.02% and <0.05%)”, the “Impurity RRT 0.87, Area %” value (2 M) was “NQ (≥0.02% and <0.05%)” and the “Impurity RRT 0.99, Area %” value (2 M) was “NQ (≥0.02% and <0.05%)”. For the same molecule, the “Impurity RRT 1.02, Area %” value (2 M) was 0.10 Area %, the “Impurity RRT 1.05, Area %” value (2 M) was “NQ (≥0.02% and <0.05%)” and the “Impurity RRT 1.06 (Cmp 4), Area %” value (2 M) was “NQ (≥0.02% and <0.05%)”. For the same molecule, the “Impurity RRT 1.17 (Cmp 6), Area %” value (2 M) was 0.323 Area % and 0.23 Area %, the “Impurity RRT 1.39, Area %” value (2 M) was 0.09 Area % and the “Impurities Total, Area %” value (3 M) was 2.9 Area %. The “Impurity RRT 0.40, Area %” value (3 M) was “NQ (≥0.02% and <0.05%)”, the “Impurity RRT 0.85, Area %” value (3 M) was “NQ (≥0.02% and <0.05%)” and the “Impurity RRT 0.88, Area %” value (3 M) was “NQ (≥0.02% and <0.05%)”. The “Impurity RRT 0.98, Area %” value (3 M) was “NQ (≥0.02% and <0.05%)”, the “Impurity RRT 1.02, Area %” value (3 M) was 0.13 Area % and the “Impurity RRT 1.06 (Cmp 4), Area %” value (3 M) was “NQ (≥0.02% and <0.05%)”. For the same molecule, the “Impurity RRT 1.10, Area %” value (3 M) was “NQ (≥0.02% and <0.05%)”, the “Impurity RRT 1.13, Area %” value (3 M) was “NQ (≥0.02% and <0.05%)” and the “Impurity RRT 1.16 (Cmp 6), Area %” value (3 M) was 2.6 Area %. For the same molecule, the “Impurity RRT 1.38 (1.39), Area %” value (3 M) was 0.14 Area %, the Purity (%) (T = 0 month (0 M)) was 99.8% and 99.6% and the Purity (%) (T = 1 month (1 M)) was 99.5%. The Purity (%) (T = 2 months (2 M)) was 99.4% and the Purity (%) (T = 3 months (3 M)) was 97.0%.
